Test results: paper PMC12029227, “In Vitro Evaluation of Novel Furo[3,2-c]coumarins as Cholinesterases and Monoamine Oxidases Inhibitors” (Molecules, 2025)
“Also recorded” adds a separate entry of the source. Like-named read-outs stand apart in the source and are kept apart here.

Assays:
[1] = Precipitation in the cell assay conditions; format: physicochemical; conditions: 20 μM, SH-SY5Y cell assay conditions
Procedure: The cell viability of human neuroblastoma SH-SY5Y cells was measured as previously reported in ref. [29]. […] Briefly, cells were plated at a concentration of 4.5 × 10^4 cells/well and cultured in Dulbecco’s modified Eagle’s medium (DMEM) high glucose supplemented with 10% (v/v) heat-inactivated fetal bovine serum (FBS), 2 mM L-glutamine, 100 U/mL penicillin, and 100 μg/mL streptomycin at 37 °C in an atmosphere of 5% CO2 in 96 wells/plate. […] Then, cells were incubated for 2 h at 37 °C and 5% CO2 with 0.5 mg/mL of MTT, and the formazan crystals in the cells were solubilized with absolute ethanol. […] Cell viability was expressed as a percentage of the negative control (CTRL), represented by untreated cells, which was set at 100%. Data are the mean ± SD from three independent experiments, each performed in triplicate and analyzed using GraphPad Prism 5.0 (GraphPad Software Inc., San Diego, CA, USA). Statistical significance was calculated using a one-way analysis of variance (ANOVA) followed by Dunnett’s multiple comparison test. Levels of significance refer to untreated cells: * p < 0.05.

[2] = target: T1, hMAO B (Homo sapiens, UniProt P27338); assay: Inhibition of human recombinant MAO B, spectrofluorimetric kynuramine assay; format: biochemical; conditions: for inhibition at 10 µM: read-out: % Inhibition at 10 μM hMAO B
T1 construct: purchased Sigma-Aldrich (Milan, Italy)
T1 sequence (P27338 1-520): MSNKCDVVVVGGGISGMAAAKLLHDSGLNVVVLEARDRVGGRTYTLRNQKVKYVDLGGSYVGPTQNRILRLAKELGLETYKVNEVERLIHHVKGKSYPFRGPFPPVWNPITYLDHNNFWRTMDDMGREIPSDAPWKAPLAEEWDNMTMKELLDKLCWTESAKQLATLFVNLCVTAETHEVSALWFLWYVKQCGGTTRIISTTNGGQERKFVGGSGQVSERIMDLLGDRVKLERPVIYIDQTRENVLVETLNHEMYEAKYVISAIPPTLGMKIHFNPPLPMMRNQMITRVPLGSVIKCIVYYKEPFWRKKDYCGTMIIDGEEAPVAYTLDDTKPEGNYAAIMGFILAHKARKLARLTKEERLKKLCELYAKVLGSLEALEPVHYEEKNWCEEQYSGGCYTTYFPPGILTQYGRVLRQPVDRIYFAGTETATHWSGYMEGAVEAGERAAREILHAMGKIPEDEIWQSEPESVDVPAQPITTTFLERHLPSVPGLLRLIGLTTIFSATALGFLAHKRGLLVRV
Procedure: (§1) All human enzymes, substrates and reagents were from Sigma-Aldrich (Milan, Italy). Experiments were run in 96-well plates from Greiner Bio-One (Kremsmenster, Austria) with an Infinite M1000 Pro multiplate reader (Tecan, Cernusco sul Naviglio, Italy). […] For studies addressing MAOs inhibition the spectrofluorimetric protocol was based on the oxidative deamination of kynuramine to 4-hydroxyquinoline measured in black, flat-bottom polystyrene plates [29]. Incubations were performed in triplicate and results were expressed as the mean ± SEM from 3 independent experiments. The values of IC50 were calculated by nonlinear regressions using GraphPad Prism 5.00 (GraphPad Software, San Diego, CA, USA).

[3] = target: T2, hAChE (Homo sapiens, UniProt P22303); assay: biochemical; conditions: for IC50: human AChE, mean of three independent experiments ± SEM
T2 construct: purchased Sigma-Aldrich (Milan, Italy)
T2 sequence (P22303 32-614): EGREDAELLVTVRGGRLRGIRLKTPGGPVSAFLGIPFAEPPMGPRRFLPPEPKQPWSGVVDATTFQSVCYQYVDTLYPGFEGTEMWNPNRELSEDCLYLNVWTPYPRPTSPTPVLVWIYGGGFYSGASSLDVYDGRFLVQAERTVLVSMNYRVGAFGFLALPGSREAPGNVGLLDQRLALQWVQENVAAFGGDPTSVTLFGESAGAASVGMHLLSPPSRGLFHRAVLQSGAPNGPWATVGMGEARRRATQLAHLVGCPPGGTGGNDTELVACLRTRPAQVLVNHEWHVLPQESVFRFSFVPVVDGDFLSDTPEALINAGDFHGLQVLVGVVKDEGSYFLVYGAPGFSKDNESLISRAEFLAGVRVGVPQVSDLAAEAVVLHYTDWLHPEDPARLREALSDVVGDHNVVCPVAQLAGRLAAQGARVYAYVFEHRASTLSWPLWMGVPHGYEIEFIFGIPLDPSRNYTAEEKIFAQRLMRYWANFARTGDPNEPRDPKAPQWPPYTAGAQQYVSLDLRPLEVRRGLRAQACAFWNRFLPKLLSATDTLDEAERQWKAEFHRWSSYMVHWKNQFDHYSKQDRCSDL
Procedure: All human enzymes, substrates and reagents were from Sigma-Aldrich (Milan, Italy). Experiments were run in 96-well plates from Greiner Bio-One (Kremsmenster, Austria) with an Infinite M1000 Pro multiplate reader (Tecan, Cernusco sul Naviglio, Italy). The inhibition of ChEs was determined by following Ellman’s spectrophotometric assay in transparent, flat-bottom plates [18]. […] Incubations were performed in triplicate and results were expressed as the mean ± SEM from 3 independent experiments. The values of IC50 were calculated by nonlinear regressions using GraphPad Prism 5.00 (GraphPad Software, San Diego, CA, USA). […] Apparent inhibition constants and kinetic parameters were calculated within the “Enzyme kinetics” module of Prism.

[4] = target: T3, hMAO A (Homo sapiens, UniProt P21397); assay: Inhibition of human recombinant MAO A, spectrofluorimetric kynuramine assay; format: biochemical; conditions: for inhibition at 10 µM: read-out: % Inhibition at 10 μM hMAO A; for inhibition of MAO A activity (in words): summary of Table 1
T3 construct: purchased Sigma-Aldrich (Milan, Italy)
T3 sequence (P21397 1-527): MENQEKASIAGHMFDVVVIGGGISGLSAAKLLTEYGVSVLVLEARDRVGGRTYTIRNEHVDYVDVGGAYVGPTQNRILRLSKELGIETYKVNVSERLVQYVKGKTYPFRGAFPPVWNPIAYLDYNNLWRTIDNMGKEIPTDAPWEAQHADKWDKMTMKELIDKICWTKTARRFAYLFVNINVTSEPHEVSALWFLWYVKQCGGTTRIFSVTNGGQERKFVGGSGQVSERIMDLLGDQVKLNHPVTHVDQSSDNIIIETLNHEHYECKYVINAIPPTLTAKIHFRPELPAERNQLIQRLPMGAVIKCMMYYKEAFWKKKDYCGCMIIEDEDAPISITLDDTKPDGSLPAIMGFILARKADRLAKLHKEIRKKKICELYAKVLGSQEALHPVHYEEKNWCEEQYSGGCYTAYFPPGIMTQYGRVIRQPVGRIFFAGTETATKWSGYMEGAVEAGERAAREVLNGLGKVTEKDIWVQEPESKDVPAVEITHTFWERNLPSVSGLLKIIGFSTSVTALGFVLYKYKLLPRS
Procedure: as §1

[5] = target: T4, hBChE (Homo sapiens, UniProt P06276); assay: biochemical; format: biochemical; conditions: for inhibition at 10 µM: human BChE, mean ± SEM; for inhibitory activity toward hBChE (in words): summary of Table 1
T4 construct: purchased Sigma-Aldrich (Milan, Italy)
T4 sequence (P06276 29-602): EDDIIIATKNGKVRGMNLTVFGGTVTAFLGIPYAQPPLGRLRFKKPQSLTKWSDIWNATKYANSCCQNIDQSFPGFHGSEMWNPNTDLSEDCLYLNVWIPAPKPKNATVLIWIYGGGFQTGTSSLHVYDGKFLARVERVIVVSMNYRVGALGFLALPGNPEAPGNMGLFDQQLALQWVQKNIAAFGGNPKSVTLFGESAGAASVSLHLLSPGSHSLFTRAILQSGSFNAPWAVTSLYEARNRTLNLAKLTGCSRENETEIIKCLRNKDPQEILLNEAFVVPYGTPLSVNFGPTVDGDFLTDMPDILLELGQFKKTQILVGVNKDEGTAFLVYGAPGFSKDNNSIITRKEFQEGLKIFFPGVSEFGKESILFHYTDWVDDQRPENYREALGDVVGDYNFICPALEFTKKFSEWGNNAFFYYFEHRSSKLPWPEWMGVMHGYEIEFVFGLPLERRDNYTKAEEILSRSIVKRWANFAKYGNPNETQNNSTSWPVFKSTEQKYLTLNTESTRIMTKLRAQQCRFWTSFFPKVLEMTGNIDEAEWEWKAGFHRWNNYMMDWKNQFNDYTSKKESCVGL
Procedure: All human enzymes, substrates and reagents were from Sigma-Aldrich (Milan, Italy). Experiments were run in 96-well plates from Greiner Bio-One (Kremsmenster, Austria) with an Infinite M1000 Pro multiplate reader (Tecan, Cernusco sul Naviglio, Italy). The inhibition of ChEs was determined by following Ellman’s spectrophotometric assay in transparent, flat-bottom plates [18]. […] Incubations were performed in triplicate and results were expressed as the mean ± SEM from 3 independent experiments. The values of IC50 were calculated by nonlinear regressions using GraphPad Prism 5.00 (GraphPad Software, San Diego, CA, USA).

[6] = human recombinant MAO B on Supersomes, 10 μM, mean ± SEM
[7] = human recombinant MAO A on Supersomes, 10 μM, mean ± SEM

SMILES	precipitation in the assay conditions at higher concentrations [1]	inhibition at 10 µM [2] [%]	IC50 [3] [µM]	inhibition at 10 µM [4] [%]	inhibition at 10 µM [5] [%]	inhibitory activity toward hBChE (in words) [5]	inhibition at 10 µM [2, 6] [%]	inhibition at 10 µM [4, 7] [%]	inhibition of MAO A activity (in words) ([4]; 10 μM)	IC50 [2] [µM]	inhibition mechanism for AChE ([3]; Lineweaver-Burk plots, inhibitor 0–15 μM)	Ki ([3]; Lineweaver-Burk plots, inhibitor 0–15 μM, substrate S-acetylthiocholine 0.033 to 0.2 mM, read-out: Ki AChE) [µM]
COc1ccc([C@@H]2c3c(c4ccccc4oc3=O)O[C@H]2c2ccccc2S(C)(=O)=O)cc1 [Compound 2b]	precipitation	39 ± 6	6.1 ± 0.3	45 ± 1	29 ± 11	very low percentage of inhibition	–	–	–	–	–	–
Cc1ccc([C@@H]2c3c(c4ccccc4oc3=O)O[C@H]2c2ccccc2S(C)(=O)=O)cc1 [Compound 2a]	precipitation	40 ± 8	5.5 ± 0.7	47 ± 3	27 ± 12	very low percentage of inhibition	–	–	–	–	–	–
Cc1ccc(-c2c(-c3ccccc3S(C)(=O)=O)oc3c2c(=O)oc2ccccc23)cc1 [Compound 3a]	–	–	4.4 ± 0.5	–	< 5	absence of inhibitory activities	32	< 5	inactive	–	–	–
CS(=O)(=O)c1ccccc1[C@@H]1Oc2c(c(=O)oc3ccccc23)[C@H]1c1cccs1 [Compound 2d]	precipitation	17 ± 10	4 ± 0.5	42 ± 4	< 5	absence of inhibitory activities	–	–	–	–	–	–
CS(=O)(=O)c1ccccc1[C@@H]1Oc2c(c(=O)oc3ccccc23)[C@H]1c1ccc(Cl)cc1 [Compound 2c]	–	11 ± 6	4 ± 0.7	16 ± 14	< 5	absence of inhibitory activities	–	–	–	–	–	–
COc1ccc(-c2c(-c3ccccc3S(C)(=O)=O)oc3c2c(=O)oc2ccccc23)cc1 [Compound 3b]	–	–	5.7 ± 1	–	19 ± 9	very low percentage of inhibition	43 ± 1	< 5	inactive	–	–	–
CS(=O)(=O)c1ccccc1-c1oc2c(c1-c1cccs1)c(=O)oc1ccccc12 [Compound 3d]	–	–	4.1 ± 0.7	–	21 ± 3	very low percentage of inhibition	–	< 5	no inhibition	0.561 ± 0.085	mixed-type or a non-competitive inhibition mechanism; also recorded: mixed-type kinetics; also recorded: mixed-type or non-competitive binding mode	9.7 ± 0.6
